{
  "source": "patent US20030198611A1",
  "about": "“Method of treating onychomycosis with urea and an antioxidant” (Bradley Pharmaceuticals, Inc., priority 2002, published 2003)",
  "test_system": "fungi",
  "assay": "antifungal potency of urea compared with known antifungal agents",
  "conditions": "no method or data given",
  "data": [
    {"smiles": "NC(N)=O", "note": "[urea]", "values": [
      {"measurement": "antifungal potency relative to known antifungal agents", "result": "equal potency to known antifungal agents"}
    ]}
  ]
}
